Measurements reported in patent US20230279020A9, “CARM1 INHIBITORS AND USES THEREOF” (Epizyme, Inc., priority 2013, published 2023).

What follows are compounds tested against Human CARM1 (PRMT4) (Homo sapiens (Human), UniProt Q86X55) (assay: CARM1 enzyme assay on peptide substrate (3H-SAM Flashplate)). Settings: Biochemical potencies, classification codes; read-out: Biochem IC50.
Sequence of Human CARM1 (PRMT4) (Q86X55 other isoform, or with tags, fused parts or gaps isoform Q86X55-1): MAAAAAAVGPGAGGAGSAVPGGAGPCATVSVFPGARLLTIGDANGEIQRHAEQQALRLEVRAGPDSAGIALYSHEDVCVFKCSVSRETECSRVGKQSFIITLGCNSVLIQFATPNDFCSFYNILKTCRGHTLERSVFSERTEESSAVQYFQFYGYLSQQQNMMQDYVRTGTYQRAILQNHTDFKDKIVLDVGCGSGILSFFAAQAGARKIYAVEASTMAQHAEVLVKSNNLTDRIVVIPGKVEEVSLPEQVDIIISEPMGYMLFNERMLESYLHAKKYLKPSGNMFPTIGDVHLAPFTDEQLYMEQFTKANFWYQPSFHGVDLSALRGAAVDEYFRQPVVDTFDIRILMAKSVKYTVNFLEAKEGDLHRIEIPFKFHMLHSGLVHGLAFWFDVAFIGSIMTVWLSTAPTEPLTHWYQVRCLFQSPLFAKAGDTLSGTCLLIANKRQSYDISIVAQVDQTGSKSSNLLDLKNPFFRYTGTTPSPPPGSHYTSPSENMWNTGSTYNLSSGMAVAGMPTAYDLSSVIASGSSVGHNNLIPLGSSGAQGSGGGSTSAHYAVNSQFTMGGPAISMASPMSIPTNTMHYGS

Row | IC50 [µM] | SMILES
1 | < 0.1 | CNCC(O)COc1cccc(-c2nc(-c3scnc3C)cc(N(C)C3CCOCC3)n2)c1 (centres unmarked) [Example 495-1a]
2 | < 0.1 | CNCC(O)COc1cccc(-c2nc(-c3ccnc(C#N)c3)cc(N(C)C3CCOCC3)n2)c1 (centres unmarked) [Example 498-1a]
3 | < 0.1 | CNCC(O)COc1cccc(-c2nc(-c3ccc(S(C)(=O)=O)cc3)cc(N(C)C3CCOCC3)n2)c1 (centres unmarked) [Example 499-1a]
4 | < 0.1 | CNCC(O)COc1cccc(-c2nc(-c3cn(C)cn3)cc(N(C)C3CCOCC3)n2)c1 (centres unmarked) [Example 501-1a]
5 | < 0.1 | CNCC(O)COc1cccc(-c2nc(-c3ccnc(C(C)(C)O)c3)cc(N(C)C3CCOCC3)n2)c1 (centres unmarked) [Example 503-1a]
6 | < 0.1 | CNCC(O)COc1cccc(-c2nc(-c3ccnc(C(=O)NC)c3)cc(N(C)C3CCOCC3)n2)c1 (centres unmarked) [Example 510-1a]
7 | < 0.1 | CNC[C@@H](O)COc1cccc(-c2nc(-c3cn(S(C)(=O)=O)c4ncncc34)cc(N(C)C3CCOCC3)n2)c1 [Example 511-1a]
8 | < 0.1 | CNCC(O)COc1cccc(-c2nc(-c3cnn(CC(C)C)c3)cc(N(C)C3CCOCC3)n2)c1 (centres unmarked) [Example 516-1a]
9 | < 0.1 | CNCC(O)COc1cccc(-c2nc(-c3cnc(C)n3C)cc(N(C)C3CCOCC3)n2)c1 (centres unmarked) [Example 517-1a]
10 | < 0.1 | CNCC(O)COc1cccc(-c2nc(-c3nc(C)cn3C)cc(N(C)C3CCOCC3)n2)c1 (centres unmarked) [Example 519-1a]
11 | < 0.1 | CNCC(O)COc1cccc(-c2nc(-c3nc(C)c[nH]3)cc(N(C)C3CCOCC3)n2)c1 (centres unmarked) [Example 521-1a]
12 | < 0.1 | CNCC(O)COc1cccc(-c2nc(-c3cncnc3)cc(N(C)C3CCOCC3)n2)c1 (centres unmarked) [Example 525-1a]
13 | < 0.1 | CNCC(O)COc1cccc(-c2nc(-c3cn(C)c(C)n3)cc(N(C)C3CCOCC3)n2)c1 (centres unmarked) [Example 529-1a]
14 | < 0.1 | CNCC(O)COc1cccc(-c2nc(-c3cnc4ncnn4c3)cc(N(C)C3CCOCC3)n2)c1 (centres unmarked) [Example 536-1a]
15 | < 0.1 | CNCC(O)COc1cccc(-c2nc(-c3ccnc(OC)c3)cc(N(C)C3CCOCC3)n2)c1 (centres unmarked) [Example 541-1a]
16 | < 0.1 | CNCC(O)COc1cccc(-c2nc(-c3cnc4ccnn4c3)cc(N(C)C3CCOCC3)n2)c1 (centres unmarked) [Example 564-1a]
17 | < 0.1 | CNCC(O)COc1cccc(-c2nc(-c3cc4ccccc4o3)cc(N(C)C3CCOCC3)n2)c1 (centres unmarked) [Example 570-1a]
18 | < 0.1 | CNCC(O)COc1cccc(-c2nc(SC)cc(N(C)C3CCOCC3)n2)c1 (centres unmarked) [Example 573-1a]

The remaining lines, values behind:

Row | SMILES | IC50 [µM]
19 | CNCC(O)COc1cccc(-c2nc(-c3c(C)nn(C(C)C)c3C)cc(N(C)C3CCOCC3)n2)c1 (centres unmarked) [Example 496-1a] | < 0.1
20 | CNCC(O)COc1cccc(-c2nc(N3CCOCC3)c(F)c(N(C)C3CCOCC3)n2)c1 (centres unmarked) [Example 500-1a] | < 0.1
21 | CNCC(O)COc1cccc(-c2nc(N3CCN(C)[C@@H](C)C3)cc(N(C)C3CCOCC3)n2)c1 (some centres unmarked) [Example 502-1a] | < 0.1
22 | CNCC(O)COc1cccc(-c2nc(-c3c[nH]c4ncncc34)cc(N(C)C3CCOCC3)n2)c1 (centres unmarked) [Example 504-1a] | < 0.1
23 | CC[C@H]1CN(c2cc(N(C)C3CCOCC3)nc(-c3cccc(OCC(O)CNC)c3)n2)CCN1 (some centres unmarked) [Example 505-1a] | < 0.1
24 | CNCC(O)COc1cc(Cl)cc(-c2nc(Nc3cncnc3)c(C)c(N(C)C3CCOCC3)n2)c1 (centres unmarked) [Example 506-1a] | < 0.1
25 | CNC[C@@H](O)COc1cccc(-c2nc(-c3cnc4cnccn34)cc(N(C)C3CCOCC3)n2)c1 [Example 507-1a] | < 0.1
26 | CNCC(O)COc1cc(Cl)cc(-c2nc(C(=O)NCC3CCOCC3)cc(N(C)C3CCOCC3)n2)c1 (centres unmarked) [Example 508-1a] | < 0.1
27 | CNCC(O)COc1cccc(-c2nc(-c3ccc(N4CCOCC4)nn3)cc(N(C)C3CCOCC3)n2)c1 (centres unmarked) [Example 512-1a] | < 0.1
28 | CNCC(O)COc1cccc(-c2nc(Nc3ncc(C)cn3)cc(N(C)C3CCOCC3)n2)c1 (centres unmarked) [Example 513-1a] | < 0.1
29 | CNCC(O)COc1cccc(-c2nc(-c3cnc4c(C(=O)N(C)C)cnn4c3)cc(N(C)C3CCOCC3)n2)c1 (centres unmarked) [Example 514-1a] | < 0.1
30 | CNCC(O)COc1cc(Cl)cc(-c2nc(-c3ccncc3C3CC3)cc(N(C)C3CCOCC3)n2)c1 (centres unmarked) [Example 522-1a] | < 0.1
31 | CNCC(O)COc1cccc(-c2nc(N3CCO[C@H](CN)C3)cc(N(C)C3CCOCC3)n2)c1 (some centres unmarked) [Example 524-1a] | < 0.1
32 | CNC[C@@H](O)COc1cccc(-c2nc(-c3c[nH]c4ncncc34)c(C)c(N(C)C3CCOCC3)n2)c1 [Example 526-1a] | < 0.1
33 | CNCC(O)COc1cccc(-c2nc(-c3c(C)nn(C)c3C)cc(N(C)C3CCOCC3)n2)c1 (centres unmarked) [Example 528-1a] | < 0.1
34 | CNCC(O)COc1cccc(-c2nc(N3CCN(C)CC3)cc(N(C)C3CCOCC3)n2)c1 (centres unmarked) [Example 531-1a] | < 0.1
35 | CNCC(O)COc1cccc(-c2nc(-c3ccncc3)c(C)c(N(C)C3CCOCC3)n2)c1 (centres unmarked) [Example 537-1a] | < 0.1
36 | CNCC(O)COc1cccc(-c2nc(N3CCC[C@H](O)C3)cc(N(C)C3CCOCC3)n2)c1 (some centres unmarked) [Example 538-1a] | < 0.1

Row | SMILES | IC50 [µM]
37 | CNCC(O)COc1cccc(-c2nc(N(C)C3CCOCC3)cc(-n3cccn3)n2)c1 (centres unmarked) [Example 542-1a] | < 0.1
38 | CNCC(O)COc1cccc(-c2nc(N(C)C3CCOCC3)cc(N3C[C@@H]4C[C@H]3CN4C)n2)c1 (some centres unmarked) [Example 543-1a] | < 0.1
39 | CNCC(O)COc1cccc(-c2nc(C(C)=O)c(C)c(N(C)C3CCOCC3)n2)c1 (centres unmarked) [Example 544-1a] | < 0.1
40 | CNCC(O)COc1cccc(-c2nc(C(=O)NCC3CCOCC3)cc(N(C)C3CCOCC3)n2)c1 (centres unmarked) [Example 548-1a] | < 0.1
41 | CNCC(O)COc1cccc(-c2nc(N3CCN(C)C(=O)C3)cc(N(C)C3CCOCC3)n2)c1 (centres unmarked) [Example 549-1a] | < 0.1
42 | CNCC(O)COc1cccc(-c2nc(N3CC4(CCNCC4)c4ccccc43)cc(N(C)C3CCOCC3)n2)c1 (centres unmarked) [Example 559-1a] | < 0.1
43 | CNCC(O)COc1cccc(-c2nc(N3CCNCC3)c(C)c(N(C)C3CCOCC3)n2)c1 (centres unmarked) [Example 560-1a] | < 0.1
44 | CNCC(O)COc1cc(Cl)cc(-c2nc(-c3cnc4ccccn34)c(C)c(N(C)C3CCOCC3)n2)c1 (centres unmarked) [Example 561-1a] | < 0.1
45 | CNCC(O)COc1cccc(-c2nc(N(C)C3CCOCC3)cc(N3C[C@H]4C[C@@H]3CN4)n2)c1 (some centres unmarked) [Example 562-1a] | < 0.1
46 | CNCC(O)COc1cccc(-c2nc(-c3cnc4n3CCNC4)cc(N(C)C3CCOCC3)n2)c1 (centres unmarked) [Example 563-1a] | < 0.1
47 | CCOC(=O)c1sc(-c2cc(N(C)C3CCOCC3)nc(-c3cccc(OCC(O)CNC)c3)n2)nc1C (centres unmarked) [Example 565-1a] | < 0.1
48 | CNCC(O)COc1cccc(-c2nc(N3CC4CCC(C3)O4)cc(N(C)C3CCOCC3)n2)c1 (centres unmarked) [Example 566-1a] | < 0.1
49 | CNCC(O)COc1cccc(-c2nc(N(C)C3CCOCC3)c(C)c(N3CCNC[C@@H]3C)n2)c1 (some centres unmarked) [Example 567-1a] | < 0.1
50 | CNCC(O)COc1cccc(-c2nc(N(C)C3CCOCC3)cc(-n3nc(C)cc3C)n2)c1 (centres unmarked) [Example 568-1a] | < 0.1
51 | CNCC(O)COc1cccc(-c2nc(-c3sc(C)nc3C)cc(N(C)C3CCOCC3)n2)c1 (centres unmarked) [Example 569-1a] | < 0.1
52 | CNC[C@@H](O)COc1cccc(-c2nc(-c3c[nH]c4ncncc34)cc(N(C)C3CCOCC3)n2)c1 [Example 571-1a] | < 0.1
53 | CNCC(O)COc1cccc(-c2nc(-c3cnc(CO)n3C)cc(N(C)C3CCOCC3)n2)c1 (centres unmarked) [Example 572-1a] | < 0.1
